Results as given in ChEMBL document CHEMBL4028852, “Design of a Chemical Probe for the Bromodomain and Plant Homeodomain Finger-Containing (BRPF) Family of Proteins” (J Med Chem, 2017).
pIC50: −log10 of the molar value.

Legend:
[1] = Inhibition of cell proliferation of human NCI60 cells at 10 uM after 48 hrs by SRB assay; type: functional; settings: NCI60, 48 h
[2] = biological target: T1, Transcription intermediary factor 1-alpha (Homo sapiens, UniProt O15164); assay: Inhibition of human TRIM24 bromodomain (790 to 977 residues) expressed in Escherichia coli BL21 after 1 hr by BROMOscan assay
T1 sequence (O15164 whole entry): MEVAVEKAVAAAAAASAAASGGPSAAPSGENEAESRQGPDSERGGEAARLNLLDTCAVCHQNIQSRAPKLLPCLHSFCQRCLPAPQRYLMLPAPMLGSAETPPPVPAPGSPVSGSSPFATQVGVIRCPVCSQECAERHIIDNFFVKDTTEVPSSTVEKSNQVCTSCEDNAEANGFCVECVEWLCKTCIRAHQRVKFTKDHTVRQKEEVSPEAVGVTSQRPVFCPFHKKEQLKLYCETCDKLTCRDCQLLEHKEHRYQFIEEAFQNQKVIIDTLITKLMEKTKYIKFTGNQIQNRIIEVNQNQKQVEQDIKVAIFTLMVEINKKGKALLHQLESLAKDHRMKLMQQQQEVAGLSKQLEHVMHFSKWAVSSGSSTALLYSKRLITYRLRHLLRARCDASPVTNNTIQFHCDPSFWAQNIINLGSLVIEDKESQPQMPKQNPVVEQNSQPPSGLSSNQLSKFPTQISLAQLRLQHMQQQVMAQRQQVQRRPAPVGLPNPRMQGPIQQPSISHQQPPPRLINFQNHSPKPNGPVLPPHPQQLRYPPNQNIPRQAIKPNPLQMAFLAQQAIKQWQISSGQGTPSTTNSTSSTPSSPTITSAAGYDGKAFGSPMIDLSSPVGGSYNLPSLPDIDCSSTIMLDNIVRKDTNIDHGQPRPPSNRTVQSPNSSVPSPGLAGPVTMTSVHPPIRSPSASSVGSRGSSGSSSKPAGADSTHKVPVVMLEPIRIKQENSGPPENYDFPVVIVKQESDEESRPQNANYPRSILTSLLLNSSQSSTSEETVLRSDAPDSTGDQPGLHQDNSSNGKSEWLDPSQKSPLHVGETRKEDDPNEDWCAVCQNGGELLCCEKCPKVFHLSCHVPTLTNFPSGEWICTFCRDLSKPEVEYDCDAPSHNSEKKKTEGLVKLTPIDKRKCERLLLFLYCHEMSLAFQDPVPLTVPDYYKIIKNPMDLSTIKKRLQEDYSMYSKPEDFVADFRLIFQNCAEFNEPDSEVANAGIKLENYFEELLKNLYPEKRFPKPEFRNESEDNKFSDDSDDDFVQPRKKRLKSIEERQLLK

With `COc1cc(C#N)ccc1S(=O)(=O)Nc1ccc2c(c1)cc(C)c(=O)n2C` the inhibition at 10 µM [1] was < 25% and the pIC50 [2] was 5.80.
